Measurements taken from patent publication US12187717B2, “Compound and use thereof in treating autoimmune diseases” (PARENCHYMA BIOTECH INC., priority 2022, dated 2025).

What was measured:
[1] = system: experimental autoimmune encephalomyelitis (EAE); test: Experimental autoimmune encephalomyelitis (EAE) model of multiple sclerosis; assay type: in vivo, C57BL/6 mice; conditions: 10 mg/kg oral daily, 15th to 20th days; 21st day; 0-5 stages; solvent control 2.9±1.92
Procedure: On day 0 of the experiment, myelin oligodendrocyte glycoprotein (MOG) 35-55 peptide (MOG35-55, Peptron) (200 μg), heat killed Mmycobacterium tuberculosis, Difco, Cat No. 231141) (500 μg), and an adjuvant (incomplete freund's adjuvant, Sigma Aldrich, Cat No. F5506) were mixed for 7 minutes to form an emulsion. MOG35-55 emulsion was subcutaneously injected into both flanks of C57BL/6 mice (7-8 weeks old, female), respectively, and then 100 μl of pertussis toxin (Sigma Aldrich, Cat No. P2980) (200 ng) was administered into the tail vein. On the 2nd day of the experiment, an equal amount of pertussis toxin was administered intravenously. […]
In the compound 6 administration group according to an embodiment of the present invention, 10 mg/kg of Compound 6 per mouse was completely dissolved in an ethanol-Cremophor EL mixture corresponding to 7.5% (v/v) of the administered dose, and then, was diluted in phosphate buffered saline to prepare the final ethanol:Cremophor EL:phosphate buffered saline (0.375:0.375:9.25, v/v/v), followed by oral administration with 200 μl of the prepared solution daily for a total of 6 times from the 15th to 20th days of the experiment. The multiple sclerosis index was visually observed and recorded in the severity index system classified into 0-5 stages. […]

CYP1A2 = target: T1, CYP1A2 (Homo sapiens, UniProt P05177); test: CYP isoenzyme activity; assay type: in vitro ADME; conditions: 10 μM
T1 sequence (P05177 1-516): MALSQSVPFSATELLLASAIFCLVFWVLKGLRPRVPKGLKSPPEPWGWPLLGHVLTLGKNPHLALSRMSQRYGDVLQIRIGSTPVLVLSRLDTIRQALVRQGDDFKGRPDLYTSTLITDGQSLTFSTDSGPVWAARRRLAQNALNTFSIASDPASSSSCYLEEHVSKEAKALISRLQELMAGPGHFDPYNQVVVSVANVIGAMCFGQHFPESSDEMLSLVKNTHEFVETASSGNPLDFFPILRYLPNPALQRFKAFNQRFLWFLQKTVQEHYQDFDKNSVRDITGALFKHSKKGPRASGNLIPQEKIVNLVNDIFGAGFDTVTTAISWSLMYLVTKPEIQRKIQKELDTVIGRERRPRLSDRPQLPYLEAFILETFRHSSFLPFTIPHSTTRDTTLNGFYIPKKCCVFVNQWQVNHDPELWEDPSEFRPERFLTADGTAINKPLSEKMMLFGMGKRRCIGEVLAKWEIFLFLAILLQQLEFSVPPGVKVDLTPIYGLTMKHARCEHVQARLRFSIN

CYP1A1 = test: Induction of CYP1A1 mRNA expression in HepG2 (real-time PCR); assay type: cell-based, Human; conditions: HepG2, 1 μM, 24 hours, vs control (vehicle)
Procedure: In order to confirm target specificity of the compounds of an embodiment of the present invention prepared as above, it was confirmed whether the expression levels of CYP1A1 mRNA and CYP1A1 protein, which are AHR target genes, were increased.
After recovering HepG2 under culture in DMEM-fetal bovine serum (FBS) 10% medium and then confirming that the survival rate is 97% or more through trypan blue staining, the recovered product was centrifuged at a speed of 1200 rpm for 5 minutes at room temperature, and the cells were prepared by resuspending them in DMEM-fetal calf serum 10% medium at 3×10^5 cells/ml. Thereafter, the cells were dispensed onto a 60 mm dish by 3 ml, and each dish was treated with 50 μl of Compounds 6, 21, 32 and 39 at a concentration of 1 μM diluted in DMEM medium, and then cultured in a cell incubator (5% CO2 incubator) for 24 hours. As a control, 50 μl of 0.05% dimethylsulfoxide (DMSO)/DMEM medium was used for treatment.
The cultured cells were recovered to prepare an mRNA sample. […] From the separated RNA, cDNA was synthesized by reverse transcription, and the expression of CYP1A1 was confirmed through a real-time polymerase chain reaction (PCR) using iQ SYBR-Green Supermix (Bio-rad) in a CFX96 (Bio-rad) detection system. […] Herein, one (1) fold was set using the control.
The real-time polymerase chain reaction was performed under the conditions of 45 cycles at an annealing temperature of 58° C., wherein the following primer sequences were used.

CYP3A4 = CYP3A4 (Homo sapiens, UniProt P08684); conditions: 2 days, 10 μM
Procedure: Live human hepatocyte cell lines (Corning, Cat No. 454551) were collected using a plating medium, seeded on a 24-well plate so that a cell density thereof was 0.4×10^6 cells/well, and cultured for 2 to 4 hours. After replacing the plating medium with a hepatocyte culture medium, the hepatocytes were cultured for 24 hours. After culturing for 24 hours, hepatocytes were treated with Compound 6 at 1, 5, 25 µM. The medium containing the compound was changed every 24 hours for 2 days. The cultured cells were recovered to prepare mRNA samples. mRNA was extracted from the recovered cells by a phenol-chloroform sedimentation method using TRIZOL reagent (Invitrogen, Cat No. 15596018). From the isolated RNA, cDNA was synthesized by reverse transcription, followed by measuring drug metabolizing enzymes CYP1A2, CYP2C9, CYP2C19, CYP2B6, and CYP3A4 through real-time PCR analysis using the Quant Studio™ 7 Flex Real-Time PCR System (Applied Biosystems, CA). Relative values of the enzyme expression levels were compared by the ΔΔct method using GAPDH as a control enzyme. Herein, one (1) fold was set using the control. Results are expressed as % of control compared to control sample.

Sequence of CYP3A4 (P08684 whole entry): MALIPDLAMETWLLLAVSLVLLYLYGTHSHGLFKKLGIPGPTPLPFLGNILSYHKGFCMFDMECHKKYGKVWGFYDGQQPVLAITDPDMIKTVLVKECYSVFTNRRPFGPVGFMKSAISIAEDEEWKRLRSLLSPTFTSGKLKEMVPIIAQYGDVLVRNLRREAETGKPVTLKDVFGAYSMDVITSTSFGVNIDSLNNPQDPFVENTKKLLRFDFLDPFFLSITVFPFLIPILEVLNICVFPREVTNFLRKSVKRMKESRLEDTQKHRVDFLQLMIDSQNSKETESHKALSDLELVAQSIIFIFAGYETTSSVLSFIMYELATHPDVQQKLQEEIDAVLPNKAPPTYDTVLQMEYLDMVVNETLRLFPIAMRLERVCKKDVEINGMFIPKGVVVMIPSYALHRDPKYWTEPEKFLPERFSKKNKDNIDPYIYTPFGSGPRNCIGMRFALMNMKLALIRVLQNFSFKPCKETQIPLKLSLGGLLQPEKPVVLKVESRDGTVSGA

CYP1A2 activity (CYP1A2): 88.2 % of Control Activity
CYP1A1 mRNA expression level (CYP1A1): significantly induced
CYP3A4 activity (CYP3A4): 85.7 % of Control Activity
Structure (SMILES): O=C(Cc1c[nH]c2ccc(Cl)cc12)Nc1nc2ccc(N3CCOCC3)cc2s1 [Compound 6, 2-(5-chloro-1H-indol-3-yl)-N-(6-morpholinobenzo[d]thiazol-2-yl)acetamide]
disease severity index (EAE) [1]: 0.92±0.58
